# Where “and” joins values, the source holds several entries; their conditions need not be identical. Equal entries are not always repeated. Where a SMILES comes first, the peptide text is derived from it. [ ]: non-standard residue; d: D form. Hyp = O=C(O)[C@@H]1C[C@@H](O)CN1
# Assays:
# [1] = system: TNF-alpha; assay: Example 9 Luminex, LPS hPBMCs: TNF-alpha; assay type: cell-based, human
# Description: (§1) Treatment Human PBMCs were pretreated with YY-101, YDE-011 and YDE-043 or reference compound; Xiidra® at various concentration (ranging from 1 nM to 100 uM) for 2 h before stimulation. An equal volume of 0.5% DMSO was used as a vehicle control. Then, the cells were treated with LPS at 5 ug/ml. The supernatants from treated cells were harvested at 24 h and placed in a 96 well for Luminex cytokine & chemokine profiling using a Luminex 200 multiplex assay (Luminex; R&D system, USA).
# (§2) The main study arm with triplicate wells per group in a 24-well plate: • 1. Blank • 2. PBMC: 0.5% DMSO • 3. PBMC+LPS (5 ug/ml) • 4. PBMC+YY-101 100 uM • 5. PBMC+YY-101 10 uM • 6. PBMC+YY-101 1 uM • 7. PBMC+YY-101 0.1 uM • 8. PBMC+YY-101 0.01 uM • 9. PBMC+LPS (5 ug/ml)+Xiidra®100 uM • 10. PBMC+LPS (5 ug/ml)+Xiidra® 10 uM • 11. PBMC+LPS (5 ug/ml)+Xiidra® 1 uM • 12. PBMC+LPS (5 ug/ml)+Xiidra®0.1 uM • 13. PBMC+LPS (5 ug/ml)+Xiidra®0.01 uM • 14. PBMC+LPS (5 ug/ml)+Xiidra®0.001 uM • 15. PBMC+LPS (5 ug/ml)+YY-101 100 uM • 16. PBMC+LPS (5 ug/ml)+YY-101 10 uM • 17. PBMC+LPS (5 ug/ml)+YY-101 1 uM • 18. PBMC+LPS (5 ug/ml)+YY-101 0.1 uM • 19. PBMC+LPS (5 ug/ml)+YY-101 0.01 uM • 20. PBMC+LPS (5 ug/ml)+YY-101 0.001 uM • 21. PBMC+LPS (5 ug/ml)+YDE-011 100 uM • 22. PBMC+LPS (5 ug/ml)+YDE-011 10 uM • 23. PBMC+LPS (5 ug/ml)+YDE-011 1 uM • 24. PBMC+LPS (5 ug/ml)+YDE-011 0.1 uM • 25. PBMC+LPS (5 ug/ml)+YDE-011 0.01 uM • 26. PBMC+LPS (5 ug/ml)+YDE-011 0.001 uM • 27. PBMC+LPS (5 ug/ml)+YDE-043 100 uM • 28. PBMC+LPS (5 ug/ml)+YDE-043 10 uM • 29. PBMC+LPS (5 ug/ml)+YDE-043 1 uM • 30. PBMC+LPS (5 ug/ml)+YDE-043 0.1 uM • 31. PBMC+LPS (5 ug/ml)+YDE-043 0.01 uM • 32. PBMC+LPS (5 ug/ml)+YDE-043 0.001 uM
# (§3) Multiplex assay was used to measure 30 cytokines and chemokines. The 1:2, 1:10 and 1:200 diluted cell supernatant and serial dilution of the standard were dispensed into a 96 well plate at 50 ul/well. Then, the pre-mixed cocktail of antibody-coated magnetic beads was dispensed at 50 ul/well and incubated at room temperature for 2 h in a horizontal orbital microplate shaker at 800±500 rpm. The beads were washed using a magnetic device to prevent loss. The biotin-antibody was dispensed in 50 ul of each well and incubated at room temperature for 1 h in a shaker at 800±500 rpm. After washing, streptavidin-PE was added at 50 ul/well and incubated at room temperature for 30 min in a shaker under the same conditions. Finally, after washing, wash buffer (100 ul/well) was added to the plate and incubated in a shaker for 2 min. The Luminex™ 200 setting were set according to the manufacturer's protocol. The data was calculated with a standard five-parameter logistic nonlinear regression analysis of the data (xPonent software 4.2, USA). The levels of cytokine/chemokine are normalized to the live cell counts (1×10^5 cells/mL) and presented as concentrations per mL (pg/mL or ng/mL).
# [2] = system: TIMP-1; assay: Example 9 Luminex, LPS hPBMCs: TIMP-1; assay type: cell-based, human; conditions: PBMC + LPS(5 ug/ml)
# Description: as §1, §2, §3
# [3] = PBMC + LPS(5 ug/ml) + test article 0.001 uM, Mean
# [4] = PBMC + LPS(5 ug/ml) + test article 0.001 uM, individual replicates (1st, 2nd, 3rd)
# [5] = PBMC + LPS(5 ug/ml) + test article 0.01 uM, Mean
# [6] = PBMC + LPS(5 ug/ml) + test article 0.01 uM, individual replicates (1st, 2nd, 3rd)
# [7] = PBMC + LPS(5 ug/ml) + test article 0.1 uM, Mean
# [8] = PBMC + LPS(5 ug/ml) + test article 0.1 uM, individual replicates (1st, 2nd, 3rd)
# [9] = PBMC + LPS(5 ug/ml) + test article 1 uM, Mean
# [10] = PBMC + LPS(5 ug/ml) + test article 1 uM, individual replicates (1st, 2nd, 3rd)
# [11] = PBMC + LPS(5 ug/ml) + test article 10 uM, Mean
# [12] = PBMC + LPS(5 ug/ml) + test article 10 uM, individual replicates (1st, 2nd, 3rd)
# [13] = PBMC + LPS(5 ug/ml) + test article 100 uM, Mean
# [14] = PBMC + LPS(5 ug/ml) + test article 100 uM, individual replicates (1st, 2nd, 3rd)
# [15] = test article 0.001 uM, single replicates
# [16] = test article 0.01 uM, single replicates
# [17] = test article 0.1 uM, single replicates
# [18] = test article 1 uM, single replicates
# [19] = test article 10 uM, single replicates
# [20] = test article 100 uM, single replicates
smiles,measurement,setting,value
CC(C)C[C@H](NC(=O)CNC(=O)[C@H](CC(C)C)NC(=O)[C@H](CCC(N)=O)NC(=O)CNC(=O)[C@@H]1C[C@@H](O)CN1)C(=O)N[C@@H](C)C(=O)NCC(=O)N1CCC[C@H]1C(=O)N[C@@H](CCCCN)C(=O)O [YDE-011] (H-[Hyp]GQLGLAGPK-OH),TNF-alpha Concentration,[1]; [3],1257.3 pg/mL
same,TNF-alpha conc/live cell,[1]; [3],237.4 pg/10^5
same,TNF-alpha Concentration,[1]; [4],1245.3 pg/mL and 1240.9 pg/mL and 1285.6 pg/mL
same,TNF-alpha conc/live cell,[1]; [4],276.7 pg/10^5 and 213.9 pg/10^5 and 221.7 pg/10^5
same,TNF-alpha Concentration,[1]; [5],1293.5 pg/mL
same,TNF-alpha conc/live cell,[1]; [5],222.4 pg/10^5
same,TNF-alpha Concentration,[1]; [6],1285.6 pg/ml (2×) and 1309.5 pg/ml
same,TNF-alpha conc/live cell,[1]; [6],207.4 pg/10^5 and 252.1 pg/10^5 and 207.9 pg/10^5
same,TNF-alpha Concentration,[1]; [7],1269.7 pg/mL
same,TNF-alpha conc/live cell,[1]; [7],223.0 pg/10^5
same,TNF-alpha Concentration,[1]; [8],1273.7 pg/mL and 1276.6 pg/mL and 1258.7 pg/mL
same,TNF-alpha conc/live cell,[1]; [8],193.0 pg/10^5 and 255.3 pg/10^5 and 220.8 pg/10^5
same,TNF-alpha Concentration,[1]; [9],1256.8 pg/mL
same,TNF-alpha conc/live cell,[1]; [9],250.5 pg/10^5
same,TNF-alpha Concentration,[1]; [10],1282.6 pg/mL and 1208.1 pg/mL and 1279.6 pg/mL
same,TNF-alpha conc/live cell,[1]; [10],233.2 pg/10^5 and 251.7 pg/10^5 and 266.6 pg/10^5
same,TNF-alpha Concentration,[1]; [11],1330.4 pg/mL
same,TNF-alpha conc/live cell,[1]; [11],253.3 pg/10^5
same,TNF-alpha Concentration,[1]; [12],1399.2 pg/mL and 1255.8 pg/mL and 1336.4 pg/mL
same,TNF-alpha conc/live cell,[1]; [12],259.1 pg/10^5 and 216.5 pg/10^5 and 284.3 pg/10^5
same,TNF-alpha Concentration,[1]; [13],968.4 pg/mL
same,TNF-alpha conc/live cell,[1]; [13],159.6 pg/10^5
same,TNF-alpha Concentration,[1]; [14],985.6 pg/mL and 960.5 pg/mL and 959.0 pg/mL
same,TNF-alpha conc/live cell,[1]; [14],161.6 pg/10^5 and 157.5 pg/10^5 and 159.8 pg/10^5
same,TIMP-1 Concentration,"[2]; test article 0.001 uM, Mean",1792.7 pg/mL
same,TIMP-1 MFI,"[2]; test article 0.001 uM, Mean",946.7
same,TIMP-1 conc/live cell,"[2]; test article 0.001 uM, Mean",339.5 pg/10^5
same,TIMP-1 Concentration,[2]; [15],1831.6 pg/mL and 1659.9 pg/mL and 1886.6 pg/mL
same,TIMP-1 MFI,[2]; [15],974.0 and 852.5 and 1013.5
same,TIMP-1 conc/live cell,[2]; [15],407.0 pg/10^5 and 286.2 pg/10^5 and 325.3 pg/10^5
same,TIMP-1 Concentration,"[2]; test article 0.01 uM, Mean",1879.9 pg/mL
same,TIMP-1 MFI,"[2]; test article 0.01 uM, Mean",1009.2
same,TIMP-1 conc/live cell,"[2]; test article 0.01 uM, Mean",325.5 pg/10^5
same,TIMP-1 Concentration,[2]; [16],1811.3 pg/mL and 2050.0 pg/mL and 1778.3 pg/mL
same,TIMP-1 MFI,[2]; [16],959.5 and 1132.0 and 936.0
same,TIMP-1 conc/live cell,[2]; [16],292.1 pg/10^5 and 402.0 pg/10^5 and 282.3 pg/10^5
same,TIMP-1 Concentration,"[2]; test article 0.1 uM, Mean",1831.1 pg/mL
same,TIMP-1 MFI,"[2]; test article 0.1 uM, Mean",974.2
same,TIMP-1 conc/live cell,"[2]; test article 0.1 uM, Mean",320.0 pg/10^5
same,TIMP-1 Concentration,[2]; [17],1879.7 pg/mL and 1677.8 pg/mL and 1935.9 pg/mL
same,TIMP-1 MFI,[2]; [17],1008.5 and 865.0 and 1049.0
same,TIMP-1 conc/live cell,[2]; [17],284.8 pg/10^5 and 335.6 pg/10^5 and 339.6 pg/10^5
same,TIMP-1 Concentration,"[2]; test article 1 uM, Mean",1791.4 pg/mL
same,TIMP-1 MFI,"[2]; test article 1 uM, Mean",945.5
same,TIMP-1 conc/live cell,"[2]; test article 1 uM, Mean",356.7 pg/10^5
same,TIMP-1 Concentration,[2]; [18],1869.9 pg/mL and 1750.8 pg/mL and 1753.6 pg/mL
same,TIMP-1 MFI,[2]; [18],1001.5 and 916.5 and 918.5
same,TIMP-1 conc/live cell,[2]; [18],340.0 pg/10^5 and 364.7 pg/10^5 and 365.3 pg/10^5
same,TIMP-1 Concentration,"[2]; test article 10 uM, Mean",1768.2 pg/mL
same,TIMP-1 MFI,"[2]; test article 10 uM, Mean",929.0
same,TIMP-1 conc/live cell,"[2]; test article 10 uM, Mean",335.3 pg/10^5
same,TIMP-1 Concentration,[2]; [19],1820.4 pg/mL and 1794.4 pg/mL and 1689.9 pg/mL
same,TIMP-1 MFI,[2]; [19],966.0 and 947.5 and 873.5
same,TIMP-1 conc/live cell,[2]; [19],337.1 pg/10^5 and 309.4 pg/10^5 and 359.5 pg/10^5
same,TIMP-1 Concentration,"[2]; test article 100 uM, Mean",2184.4 pg/mL
same,TIMP-1 MFI,"[2]; test article 100 uM, Mean",1231.0
same,TIMP-1 conc/live cell,"[2]; test article 100 uM, Mean",360.0 pg/10^5
same,TIMP-1 Concentration,[2]; [20],2326.8 pg/mL and 2121.7 pg/mL and 2104.6 pg/mL
same,TIMP-1 MFI,[2]; [20],1336.5 and 1184.5 and 1172.0
same,TIMP-1 conc/live cell,[2]; [20],381.4 pg/10^5 and 347.8 pg/10^5 and 350.8 pg/10^5

# From patent US20230146455A1, “TREATMENT OF INFLAMMATORY DISEASES WITH PEPTIDES AND PHARMACEUTICAL COMPOSITIONS” (Yuyu Pharma, Inc., priority 2020, published 2023)
